Data on twelve molecules can be found in patent publication US20220047617A1, “Nucleic acid nanocarrier drug, preparation method, pharmaceutical composition and use thereof” (BAI YAO ZHI DA (BEIJING) NANOBIO TECHNOLOGY CO., LTD., priority 2018, published 2022).

What is called IC50 is the point on the concentration scale where inhibition reaches its midpoint. The term inhibition denotes the change of the read-out against control, counted positive when it falls.

Numbering of substitutions follows the chain as printed. Like-named read-outs stand apart in the source and are kept apart here. {Biotin} = biotin label attached at strand end

Data set [1] deals with MCF-7 cells. The data set can be described thus: Cytotoxicity in MCF-7 cells (CellTiter 96 AQueous One Solution), Embodiment 37. The data set is classed as cell-based, human. As to the method: Cytotoxicity of DNAh-Biotin-EGFRapt-Cy5-Idarubicin Nanoparticles in MCF-7 and MV4-11 Cells
(§1) 1) Harvesting cells in a logarithmic growth phase, taking a small amount and staining with trypan blue for counting to ensure that the cell viability reaches more than 98%;
(§2) 2) adjusting the cell density to 2.22×10^4/mL with a growth medium;
(§3) 3) planting 90 μL/well of cell suspension into the 96-well plate, herein the number of cells per well in the plate is 2000;
(§4) 4) placing the planted cell plate in the incubator at 37 DEG C. and incubating overnight;
(§5) 5) performing 3.16-fold gradient dilution on the compound at 9 concentration points;
6) taking out the cell culture plate, and adding 10 μL/well of 10× concentration drug working solution to the corresponding wells of the cell culture plate, herein three replicate holes are made for each concentration, and the final drug action concentration is shown in Table 154 below;
(§6) 7) placing the cell culture plate in the incubator and continuously incubating for 96 hours; […]
(§7) 11) using a microplate reader to read a OD490 value of each well in the cell plate; and […]
(§8) GraphPad Prism 5.0 software is used to process data graphically. […] A calculation formula of the survival rate is as follows, the IC50 may be automatically calculated in GraphPad Prism 5.0. […]

Data set [2] has as its system MV4-11 cells. Description: Cytotoxicity in MV4-11 cells (CellTiter 96 AQueous One Solution), Embodiment 37. The class given is cell-based.
Protocol: 9) adding 20 μL/well of the CellTiter 96® AQueous One Solution reagent to the cell culture plate; […]
The test system of data set [3] is MCF-7 cells. Description: Cytotoxicity in MCF-7 cells (CellTiter 96 AQueous One Solution), Embodiment 33. To be noted: MCF-7, 96 hours. The data set is classed as cell-based, human. As to the method: Cytotoxicity of DNAh-Biotin-EGFRapt-Cy5-Mit Nanoparticles in MCF-7 Cells
as §1, §2, §3, §4, §5
6) taking out the cell culture plate, and adding 10 μL/well of 10× concentration drug working solution to the corresponding wells of the cell culture plate, herein three replicate holes are made for each concentration, and the final drug action concentration is shown in Table 144 below;
7) placing the cell culture plate in the incubator and continuously incubating for 96 hours […]
as §7, §8

Data set [4] relates to MCF-7 cells. The data set can be described thus: Cytotoxicity in MCF-7 cells (CellTiter 96 AQueous One Solution), Embodiment 30. The data set is classed as cell-based. To be noted: Homo sapiens, MCF7, MCF-7, 96 hours. The method, then: as §1, §2, §3, §4, §5
(§9) 6) taking out the cell culture plate, and adding 10 μL/well of 10× concentration drug working solution to the corresponding wells of the cell culture plate, herein three replicate holes are made for each concentration, and the final drug action concentration is shown in Table 134 below;
as §6, §7, §8

The subject of data set [5] is SKOV3 cells. Description: Cytotoxicity in SKOV3 cells (CellTiter 96 AQueous One Solution), Embodiment 30. The class given is cell-based. The following applies: Homo sapiens, SK-OV-3, SKOV3, 96 hours. As to the method:
as §1, §2, §3, §4, §5, §9, §6, §7, §8

In data set [6] the test system is HCT116 cells. Description: Cytotoxicity in HCT116 cells (CellTiter-Glo), Embodiment 29. The data set is classed as cell-based. The method, then: Cytotoxicity Research of RNAh-Bio-670-Docetaxel Nanoparticles in HCT116 Cells
1) Cell Culturing and Plating
HCT116 cells are cultured at 37 DEG C. and 5% CO2 in the DMEM basal medium in which 10% FBS and 1% PS are respectively added. The cell density used in the experiment is above 80%. The cells are collected, and centrifuged at 1000 rpm for 4 minutes, the medium is resuspended, the cell concentration is adjusted, and it is added to the 96-well plate in a volume of 5000 cells per 90 μL, and each group has 4 replicate wells.
2) Gradient drug concentration preparation and administration
After 24 hours, the compound solution is transferred to each well, 200 nM of each sample per well, and 4 replication wells.
Medium (untreated) control: only cells without compound treatment
Blank control: without cells, used for instrument zero calibration
3) Cell Culture after Administration
4) Cells Treated by Detection Kit
The well plate is brought to a room temperature in advance and stands for 30 minutes. 100 μL of a CellTiter-Glo® reagent is added to each well of the well plate and mixed for 2 minutes on a shaker to promote cell lysis. The Perkin Elmer Envision 2104 Multilabel Reader is used to read values and the values are recorded. […]
The acquired experiment data is analyzed and processed by using excel software, and GraphPad Prism 5 software is used for curve fitting analysis.
In general terms: In ATP-based viability assays light output follows the ATP content of the culture.

Data set [7] concerns RPMI 8226 cells. Description: Cytotoxicity in RPMI 8226 cells (CellTiter 96 AQueous One Solution), Embodiment 21. To be noted: Homo sapiens, RPMI 8226, 96 hours. The data set is classed as cell-based. The method, then: as §1
(§10) 2) adjusting the cell density to 1.11×10^5/mL with a growth medium;
(§11) 3) planting 90 μL/well of cell suspension into the 96-well plate, herein the number of cells per well in the plate is 10000;
as §4, §5
7) placing the cell culture plate in the incubator and continuously incubating for 96 hours;
8) placing the CellTiter 96® AQueous One Solution reagent at the room temperature and thawing for 90 minutes or thawing in a water bath at 37 DEG C., and placing at the room temperature and equilibrating for 30 minutes;
9) adding 20 μL/well of the CellTiter 96® AQueous One Solution reagent to the cell culture plate;
10) placing the cell culture plate in the incubator at 37 DEG C. and continuously incubating for 3 hours;
11) using a microplate reader to read a OD490 value of each well in the cell plate; and
12) data processing and analysis.
as §8

Data set [8] relates to MV4-11 cells. Description: Cytotoxicity in MV4-11 cells (CellTiter 96 AQueous One Solution), Embodiment 25. The class given is cell-based. The following applies: MV4-11, 96 hours. The method, then:
as §1, §10, §11, §4, §5
6) taking out the cell culture plate, and adding 10 μL/well of 10× concentration drug working solution to the corresponding wells of the cell culture plate, herein three replicate holes are made for each concentration, and the final drug action concentration is shown in Table 124 below;
as §6, §7, §8

Data set [9] can be described thus: TM value detection by solubility curve method (SYBR Green I). The data set is classed as physicochemical. The following applies: extension fragment deformation+core short-sequence RNA nanoparticles; temperature at ½ RFUmax in 20 to 90 DEG C. taken as Tm. The method, then:
A solubility curve method is used to detect TM values of the 7 groups of the extension fragment deformation+core short-sequence RNA nanoparticles, and the samples are consistent with the potential samples.
(1) After the sample is diluted with ultrapure water, 5 μg of the diluted sample is mixed with 2 μL of SYBR Green I dye (diluted by 1:200), a final volume is 20 μL, and the dilution concentration is as follows:
(2) It is incubated for 30 min in the dark at a room temperature; and
(3) On-machine detection is performed, a program is set to start at 20 DEG C., the temperature rises per second from 0.1 DEG C. to 95 DEG C., and reading is performed every 5 s.
Due to the particularity of the RNA samples, a temperature corresponding to ½ RFUmax in a range of 20 to 90 DEG C. is used as a sample Tm value in this test.
A solubility curve method is used to detect TM values of the 7 groups of the extension fragment deformation+core short-sequence DNA nanoparticles, and the samples are consistent with the potential samples.

Where [10] appears, read: compared with DNAh targeted fluorescent carrier.

`CC(=O)[C@]1(O)Cc2c(O)c3c(c(O)c2[C@@H](O[C@H]2C[C@H](N)[C@H](O)[C@H](C)O2)C1)C(=O)c1ccccc1C3=O` [idarubicin]: the concentration for half-maximal inhibition (IC50) in [1] (Homo sapiens, MCF7, MCF-7 cell line, 96 hours incubation, CellTiter 96 AQueous One Solution, OD490) was 0.0725 µM; in [2] (Homo sapiens, MV4-11 cell line, 96 hours incubation, CellTiter 96 AQueous One Solution, OD490), below 0.001 µM. The “toxicity to the MCF-7 cells (in words)” value in [1] (MCF-7, 96 hours, compared with DNAh targeted fluorescent carrier) is reported as “toxic”. For the same molecule, the “toxicity to the MV4-11 cells (in words)” value in data set [2] (MV4-11, 96 hours, compared with DNAh targeted fluorescent carrier) is reported as “toxic”.

For `O=C1c2c(O)ccc(O)c2C(=O)c2c(NCCNCCO)ccc(NCCNCCO)c21` [mitoxantrone], the “toxicity to the MCF-7 cells (in words)” value in data set [3] (setting [10]) was “toxic”.

`O=C1c2c(O)ccc(O)c2C(=O)c2c(NCCNCCO)ccc(NCCNCCO)c21` [Mit (mitoxantrone)] came in with an IC50 in [3] of 0.538 µM.

As to `CC(=O)O[C@@]12CO[C@@H]1C[C@H](O)[C@@]1(C)C(=O)[C@H](O)C3=C(C)[C@@H](OC(=O)[C@H](O)[C@@H](NC(=O)OC(C)(C)C)c4ccccc4)C[C@@](O)([C@@H](OC(=O)c4ccccc4)[C@H]21)C3(C)C` [docetaxel], the IC50 in data set [4] (read-out: IC50), in data set [4] (read-out: IC50 acting on the MCF-7 cells), in [5] (read-out: IC50) and in data set [5] (read-out: IC50 acting on the SKOV3 cells) was below 0.001 µM throughout. The molecule also gave a cell survival rate in data set [6] (HCT116, treatment time 72 h, drug concentration 200 nM) of 10.68%. In addition, the inhibition at 0.2 µM in data set [6] (Homo sapiens, HCT-116, HCT116, drug concentration 200 nM, 72 hours, read-out: cell inhibition rates) came out at 50.5%.

For `Nc1cccc2c1CN(C1CCC(=O)NC1=O)C2=O` (stereo not shown) [lenalidomide, 3-(7-amino-3-oxo-1H-isoindol-2-yl) piperidine-2,6-dione], the IC50 in data set [7] (read-out: IC50) and in data set [7] (read-out: IC50 acting on the RPMI 8226 cells) was 72.3 µM throughout.

In data set [8] (Homo sapiens), `Nc1ccn([C@@H]2O[C@H](CO)[C@@H](O)[C@@H]2O)c(=O)n1` [cytarabine] gave an IC50 of 1.25 µM. For the same molecule, the “toxicity to the MV4-11 cells (in words)” value in data set [8] (setting [10]) is given as “toxic”.

B1: R-21: extension fragment deformation+core short-sequence RNA nanoparticles, strands SEQ ID NO: 138-140, a-strand 3′-biotin, 2′F (nucleic acid)
chain 1: GCGGCGAGCGGCGACGAGCGUUGCGGCCGGAGGCCGG
chain 2: CCGGCCUCCGGCCGCUUCGGCGCCAGCCGCC
chain 3: GGCGGCAGGCGCCCAUAGCCGUCGCCGCUCGCCGC
modifications: RNA nanoparticle strands, 2'-fluoro modified, a-strand 3'-biotin, positions not given here
In data set [9], B1 returned a TM value of 65.0 °C.

B2: R-19: extension fragment deformation+core short-sequence RNA nanoparticles, strands SEQ ID NO: 132-134, a-strand 3′-biotin, 2′F (nucleic acid)
chain 1: B1 chain 1 with C15G, G16C, G23C, C24G
chain 2: B1 chain 2 with G14C, C15G, G22C
chain 3: B1 chain 3 with C10G, C20G, G21C
modifications: RNA nanoparticle strands, 2'-fluoro modified, a-strand 3'-biotin, positions not given here
As to B2, the TM value in data set [9] was found to be 54.0 °C.

B3: R-17: extension fragment deformation+core short-sequence RNA nanoparticles, strands SEQ ID NO: 126-128, a-strand 3′-biotin, 2′F (nucleic acid)
chain 1: B1 chain 1 with C15G, C24G
chain 2: B1 chain 2 with G14C, G20C
chain 3: B1 chain 3 with C12G, G21C
modifications: chain 1: 3' {Biotin}, sugars by position and backbone not given here; chain 2: sugars by position and backbone not given here; chain 3: sugars by position and backbone not given here; RNA nanoparticle, 2'-fluoro modified
B3 showed a TM value in [9] of 55.2 °C.

B4: R-15: extension fragment deformation+core short-sequence RNA nanoparticles, strands SEQ ID NO: 120-122, a-strand 3′-biotin, 2′F (nucleic acid)
chain 1: B1 chain 1 with C15G, C24G
chain 2: B1 chain 2 with G14C, C21G
chain 3: B1 chain 3 with G11C, G21C
modifications: chain 1: 3' {Biotin}, sugars by position and backbone not given here; chain 2: sugars by position and backbone not given here; chain 3: sugars by position and backbone not given here; RNA nanoparticle, 2'-fluoro modified
On to B4, for which the TM value in data set [9] came out at 57.5 °C.

B5: R-18: extension fragment deformation+core short-sequence RNA nanoparticles, strands SEQ ID NO: 129-131, a-strand 3′-biotin, 2′F (nucleic acid)
chain 1: B1 chain 1 with C15G, G16C, G23C, C24G
chain 2: B1 chain 2 with G14C, C15G
chain 3: B1 chain 3 with C20G, G21C
modifications: chain 1: 3' {Biotin}, sugars by position and backbone not given here; chain 2: sugars by position and backbone not given here; chain 3: sugars by position and backbone not given here; RNA nanoparticle, 2'-fluoro modified
Molecule B5 gave a TM value in data set [9] of 54.5 °C.

B6: R-16: extension fragment deformation+core short-sequence RNA nanoparticles, strands SEQ ID NO: 123-125, a-strand 3′-biotin, 2′F (nucleic acid)
chain 1: B1 chain 1 with C15G, G16C, G23C, C24G
chain 2: B1 chain 2 with G14C, C15G, G20C
chain 3: B1 chain 3 with C12G, C20G, G21C
modifications: chain 1: 3' {Biotin}, sugars by position and backbone not given here; chain 2: sugars by position and backbone not given here; chain 3: sugars by position and backbone not given here; RNA nanoparticle, 2'-fluoro modified
In data set [9], B6 returned a TM value of 53.8 °C.
